pIC50: −log10 of the molar value. The source made the active and inactive calls. The calls are words filed in the database; no cut-off is given here.
Legend:
[1] = molecular target: T1, ALK tyrosine kinase receptor (Homo sapiens, UniProt Q9UM73)
Description: Inhibition of recombinant human N-terminal GST-tagged ALK cytoplasmic domain (1058 to 1620 residues) expressed in baculovirus expression system using peptide substrate after 1 hr by mobility shift assay

A549 = experiment: cells; conditions: Homo sapiens, A549, 72 h
Description: Antiproliferative activity against human A549 cells harboring EGFR after 72 hrs by MTT assay

NCI-H460 = experiment: cells; conditions: Homo sapiens, NCI-H460, 72 h
Description: Antiproliferative activity against human NCI-H460 cells after 72 hrs by MTT assay

HCC78 [2] = experiment: Induction of apoptosis in human HCC78 cells harboring SLC34A2-ROS1 after 24 hrs by acridine orange/ethidium bromide staining based fluorescence microscopic method; assay type: functional, cell-based
KARPAS-299 [3] = experiment: Antiproliferative activity against human KARPAS299 cells harboring NPM-ALK after 72 hrs by MTT assay; assay type: functional, cell-based; conditions: KARPAS-299, 72 h
[4] = test system: ALK tyrosine kinase receptor (Homo sapiens), Q9UM73 [G1202R]
HCC78 [5] = experiment: Antiproliferative activity against human HCC78 cells harboring SLC34A2-ROS1 after 72 hrs by MTT assay; assay type: functional, cell-based; conditions: HCC78, 72 h
[6] = molecular target: ALK tyrosine kinase receptor (Homo sapiens, UniProt Q9UM73, G1202R)
NCI-H2228 = experiment: cells; conditions: Homo sapiens, NCI-H2228, 72 h
Description: Antiproliferative activity against human NCI-H2228 cells harboring EML4-ALK after 72 hrs by MTT assay

HCC78 [7] = experiment: Downregulation of ROS1 protein expression in human HCC78 cells at 100 nM after 6 hrs by Western blot method; assay type: functional, cell-based
[8] = molecular target: ALK tyrosine kinase receptor (Homo sapiens, UniProt Q9UM73, G1269A)
[9] = molecular target: T2, Proto-oncogene tyrosine-protein kinase ROS (Homo sapiens, UniProt P08922); experiment: Inhibition of ROS1 phosphorylation in human HCC78 cells at 100 nM after 6 hrs by Western blot method; assay type: cell-based
[10] = molecular target: ALK tyrosine kinase receptor (Homo sapiens, UniProt Q9UM73, T1151INS)
[11] = molecular target: ALK tyrosine kinase receptor (Homo sapiens, UniProt Q9UM73, C1156Y)
[12] = molecular target: Epidermal growth factor receptor (Homo sapiens, UniProt P00533)
Description: Inhibition of recombinant human N-terminal GST-tagged EGFR cytoplasmic domain (669 to 1210 residues) expressed in baculovirus expression system using peptide substrate after 1 hr by mobility shift assay

[13] = molecular target: Hepatocyte growth factor receptor (Homo sapiens, UniProt P08581); experiment: Inhibition of recombinant human N-terminal GST-tagged c-MET cytoplasmic domain (956 to 1390 residues) expressed in baculovirus expression system using peptide substrate after 1 hr by mobility shift assay
KARPAS-299 [14] = experiment: Downregulation of ALK protein expression in human KARPAS299 cells after 6 hrs by Western blot method; assay type: functional, cell-based
[15] = molecular target: ALK tyrosine kinase receptor (Homo sapiens, UniProt Q9UM73, S1206Y)
[16] = test system: ALK tyrosine kinase receptor (Homo sapiens), Q9UM73 [L1196M]
[17] = molecular target: T2, Proto-oncogene tyrosine-protein kinase ROS; experiment: Inhibition of recombinant human N-terminal GST-tagged ROS1 cytoplasmic domain (1883 to 2347 residues) expressed in baculovirus expression system using peptide substrate after 1 hr by mobility shift assay
[18] = molecular target: T1, ALK tyrosine kinase receptor; experiment: Inhibition of ALK phosphorylation in human KARPAS299 cells after 6 hrs by Western blot method; assay type: cell-based
[19] = molecular target: ALK tyrosine kinase receptor (Homo sapiens, UniProt Q9UM73, L1196M)
KARPAS-299 [20] = experiment: Induction of apoptosis in human KARPAS299 cells harboring NPM-ALK after 24 hrs by acridine orange/ethidium bromide staining based fluorescence microscopic method; assay type: functional, cell-based

T2 sequence (P08922 whole entry): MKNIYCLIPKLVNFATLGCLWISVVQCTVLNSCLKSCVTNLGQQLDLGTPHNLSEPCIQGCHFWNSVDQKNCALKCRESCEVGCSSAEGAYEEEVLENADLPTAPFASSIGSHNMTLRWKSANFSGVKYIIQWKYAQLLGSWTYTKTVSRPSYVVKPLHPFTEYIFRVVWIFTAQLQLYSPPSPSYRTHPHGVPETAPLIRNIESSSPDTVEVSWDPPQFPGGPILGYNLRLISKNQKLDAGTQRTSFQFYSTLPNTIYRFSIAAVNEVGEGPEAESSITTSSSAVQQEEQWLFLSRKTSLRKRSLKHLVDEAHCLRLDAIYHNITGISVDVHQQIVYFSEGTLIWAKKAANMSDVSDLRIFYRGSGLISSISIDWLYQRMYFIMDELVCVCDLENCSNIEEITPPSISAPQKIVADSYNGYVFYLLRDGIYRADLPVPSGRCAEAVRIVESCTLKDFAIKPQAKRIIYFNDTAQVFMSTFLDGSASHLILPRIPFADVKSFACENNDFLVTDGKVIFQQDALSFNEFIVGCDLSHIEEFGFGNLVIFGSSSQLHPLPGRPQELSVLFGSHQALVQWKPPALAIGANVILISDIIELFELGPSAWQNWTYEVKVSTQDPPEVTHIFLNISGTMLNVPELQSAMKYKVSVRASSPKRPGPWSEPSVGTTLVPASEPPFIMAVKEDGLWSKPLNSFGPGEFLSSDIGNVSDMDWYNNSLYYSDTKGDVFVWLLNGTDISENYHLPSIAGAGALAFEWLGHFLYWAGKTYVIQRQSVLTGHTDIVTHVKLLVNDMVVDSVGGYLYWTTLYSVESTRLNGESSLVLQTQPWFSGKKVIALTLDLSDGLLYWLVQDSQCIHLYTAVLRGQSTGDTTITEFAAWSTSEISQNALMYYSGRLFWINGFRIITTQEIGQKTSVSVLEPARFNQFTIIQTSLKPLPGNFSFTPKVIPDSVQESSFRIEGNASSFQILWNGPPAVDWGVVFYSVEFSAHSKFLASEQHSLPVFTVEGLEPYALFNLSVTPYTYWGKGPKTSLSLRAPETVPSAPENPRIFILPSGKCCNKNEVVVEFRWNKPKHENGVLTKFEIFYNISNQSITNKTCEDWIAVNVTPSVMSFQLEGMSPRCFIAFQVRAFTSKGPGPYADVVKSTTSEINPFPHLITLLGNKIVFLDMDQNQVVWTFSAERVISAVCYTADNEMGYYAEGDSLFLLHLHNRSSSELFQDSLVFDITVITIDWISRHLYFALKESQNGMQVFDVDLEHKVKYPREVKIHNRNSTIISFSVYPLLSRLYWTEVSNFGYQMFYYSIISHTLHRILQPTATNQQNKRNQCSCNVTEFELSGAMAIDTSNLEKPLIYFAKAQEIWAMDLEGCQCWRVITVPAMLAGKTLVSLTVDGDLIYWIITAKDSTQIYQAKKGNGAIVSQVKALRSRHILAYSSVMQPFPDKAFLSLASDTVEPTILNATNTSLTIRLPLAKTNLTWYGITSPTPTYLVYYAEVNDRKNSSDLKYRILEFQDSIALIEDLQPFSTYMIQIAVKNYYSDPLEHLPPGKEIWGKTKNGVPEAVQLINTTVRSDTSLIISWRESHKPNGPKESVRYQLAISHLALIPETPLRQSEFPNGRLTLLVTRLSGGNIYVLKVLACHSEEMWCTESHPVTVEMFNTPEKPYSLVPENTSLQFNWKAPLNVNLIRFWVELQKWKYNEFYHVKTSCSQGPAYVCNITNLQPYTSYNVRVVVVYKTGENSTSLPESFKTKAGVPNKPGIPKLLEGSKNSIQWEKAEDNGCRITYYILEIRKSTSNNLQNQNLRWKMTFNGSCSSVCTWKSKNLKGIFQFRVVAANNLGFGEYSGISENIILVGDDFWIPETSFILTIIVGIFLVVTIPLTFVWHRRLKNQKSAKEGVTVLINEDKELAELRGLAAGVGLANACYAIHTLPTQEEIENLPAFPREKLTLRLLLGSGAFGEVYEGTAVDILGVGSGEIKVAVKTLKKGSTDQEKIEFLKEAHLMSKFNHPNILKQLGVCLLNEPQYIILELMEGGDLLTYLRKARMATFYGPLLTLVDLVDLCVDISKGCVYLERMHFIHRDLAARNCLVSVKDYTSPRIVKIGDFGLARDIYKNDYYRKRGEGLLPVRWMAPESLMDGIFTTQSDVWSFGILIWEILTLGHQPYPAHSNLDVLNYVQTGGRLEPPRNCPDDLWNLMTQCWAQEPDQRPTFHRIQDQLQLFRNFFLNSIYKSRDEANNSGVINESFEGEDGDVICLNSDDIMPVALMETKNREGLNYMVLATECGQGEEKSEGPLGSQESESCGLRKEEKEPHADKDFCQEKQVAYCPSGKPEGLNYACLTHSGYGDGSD
ALK tyrosine kinase receptor (Homo sapiens, UniProt Q9UM73, G1202R), sequence (Q9UM73 19-1620 G1202R limits assumed): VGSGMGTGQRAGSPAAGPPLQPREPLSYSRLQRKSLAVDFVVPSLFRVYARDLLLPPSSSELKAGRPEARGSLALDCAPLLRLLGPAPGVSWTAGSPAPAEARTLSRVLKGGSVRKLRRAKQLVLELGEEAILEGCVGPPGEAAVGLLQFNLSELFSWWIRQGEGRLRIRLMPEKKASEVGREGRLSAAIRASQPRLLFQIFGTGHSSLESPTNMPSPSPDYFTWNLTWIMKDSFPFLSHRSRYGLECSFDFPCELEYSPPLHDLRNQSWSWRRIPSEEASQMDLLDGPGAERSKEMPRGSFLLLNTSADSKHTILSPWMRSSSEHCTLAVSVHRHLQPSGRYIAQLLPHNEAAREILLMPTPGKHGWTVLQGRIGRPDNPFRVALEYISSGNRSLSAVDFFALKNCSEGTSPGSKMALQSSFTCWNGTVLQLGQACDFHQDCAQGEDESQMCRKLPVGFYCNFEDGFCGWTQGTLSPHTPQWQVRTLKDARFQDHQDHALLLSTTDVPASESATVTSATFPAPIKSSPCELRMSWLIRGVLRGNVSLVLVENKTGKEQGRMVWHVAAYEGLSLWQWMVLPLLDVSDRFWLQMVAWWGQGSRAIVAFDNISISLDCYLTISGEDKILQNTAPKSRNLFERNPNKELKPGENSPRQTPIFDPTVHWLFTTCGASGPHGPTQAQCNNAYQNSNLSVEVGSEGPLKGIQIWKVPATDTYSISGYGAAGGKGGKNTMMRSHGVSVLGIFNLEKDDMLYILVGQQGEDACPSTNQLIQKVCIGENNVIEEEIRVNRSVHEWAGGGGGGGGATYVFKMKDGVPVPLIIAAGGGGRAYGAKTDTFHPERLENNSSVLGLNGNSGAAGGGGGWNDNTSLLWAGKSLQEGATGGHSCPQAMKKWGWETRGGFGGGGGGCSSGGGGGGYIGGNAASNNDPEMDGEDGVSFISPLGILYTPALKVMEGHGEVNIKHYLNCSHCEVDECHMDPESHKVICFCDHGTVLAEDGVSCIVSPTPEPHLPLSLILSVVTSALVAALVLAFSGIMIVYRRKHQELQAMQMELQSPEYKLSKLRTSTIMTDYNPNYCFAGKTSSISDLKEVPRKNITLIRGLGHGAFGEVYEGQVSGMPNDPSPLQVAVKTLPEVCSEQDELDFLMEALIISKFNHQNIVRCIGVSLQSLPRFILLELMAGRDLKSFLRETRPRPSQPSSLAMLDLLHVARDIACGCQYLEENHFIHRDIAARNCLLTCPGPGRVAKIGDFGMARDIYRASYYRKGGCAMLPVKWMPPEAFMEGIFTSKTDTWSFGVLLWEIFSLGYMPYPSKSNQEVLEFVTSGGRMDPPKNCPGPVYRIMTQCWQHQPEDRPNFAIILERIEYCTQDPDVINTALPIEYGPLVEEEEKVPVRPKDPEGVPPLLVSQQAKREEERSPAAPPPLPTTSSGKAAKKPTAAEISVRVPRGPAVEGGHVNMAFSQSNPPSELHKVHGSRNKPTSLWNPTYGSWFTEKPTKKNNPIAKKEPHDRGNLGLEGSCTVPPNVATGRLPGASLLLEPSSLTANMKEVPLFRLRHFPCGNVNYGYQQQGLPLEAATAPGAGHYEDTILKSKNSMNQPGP
Epidermal growth factor receptor, sequence (P00533 whole entry, the tested form may be a part): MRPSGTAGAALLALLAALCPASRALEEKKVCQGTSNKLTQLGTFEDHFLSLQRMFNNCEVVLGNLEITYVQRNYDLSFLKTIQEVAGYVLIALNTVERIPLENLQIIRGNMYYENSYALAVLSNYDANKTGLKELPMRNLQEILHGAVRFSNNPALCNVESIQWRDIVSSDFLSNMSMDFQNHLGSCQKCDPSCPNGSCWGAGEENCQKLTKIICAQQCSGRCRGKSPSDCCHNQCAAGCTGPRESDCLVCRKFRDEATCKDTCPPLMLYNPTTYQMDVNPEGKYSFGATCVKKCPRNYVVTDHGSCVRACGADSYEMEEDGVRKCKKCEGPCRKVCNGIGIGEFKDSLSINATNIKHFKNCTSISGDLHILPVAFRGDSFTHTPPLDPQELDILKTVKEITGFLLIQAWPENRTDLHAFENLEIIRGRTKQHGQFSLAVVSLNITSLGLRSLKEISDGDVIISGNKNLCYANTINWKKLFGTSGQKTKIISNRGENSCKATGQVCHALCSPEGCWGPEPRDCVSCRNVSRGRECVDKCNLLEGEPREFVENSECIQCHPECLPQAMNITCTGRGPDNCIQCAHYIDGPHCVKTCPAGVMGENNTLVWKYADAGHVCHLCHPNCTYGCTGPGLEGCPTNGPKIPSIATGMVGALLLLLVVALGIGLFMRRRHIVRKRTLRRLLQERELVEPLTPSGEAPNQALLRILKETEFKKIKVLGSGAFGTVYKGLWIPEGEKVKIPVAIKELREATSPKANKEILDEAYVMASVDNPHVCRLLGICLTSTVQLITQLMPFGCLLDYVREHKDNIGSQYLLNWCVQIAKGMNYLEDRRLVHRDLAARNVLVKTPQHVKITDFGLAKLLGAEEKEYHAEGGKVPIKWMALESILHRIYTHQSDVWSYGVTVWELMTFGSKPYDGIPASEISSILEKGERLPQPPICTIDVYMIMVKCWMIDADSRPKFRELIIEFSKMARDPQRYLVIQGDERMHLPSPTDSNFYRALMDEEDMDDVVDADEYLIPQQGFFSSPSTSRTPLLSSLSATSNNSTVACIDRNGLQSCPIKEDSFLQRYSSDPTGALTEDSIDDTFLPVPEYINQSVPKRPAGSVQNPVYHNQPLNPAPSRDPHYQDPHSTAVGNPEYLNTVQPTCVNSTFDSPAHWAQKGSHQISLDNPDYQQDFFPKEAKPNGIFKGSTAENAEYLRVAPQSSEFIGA

SMILES: COc1cc(-n2cc(CN3CCN(C)CC3)nn2)ccc1Nc1ncc(Cl)c(Nc2ccccc2S(=O)(=O)C(C)C)n1
- pIC50 [1]: 8.85
- pIC50 (A549): < 6.00
- pIC50 (NCI-H460): < 6.00
- Activity (HCC78 [2]): Dose-dependent effect
- pIC50 (KARPAS-299 [3]): 7.68
- Ratio IC50 [4]: 10
- pIC50 (HCC78 [5]): 7.40
- pIC50 [6]: 8.06
- pIC50 (NCI-H2228): 7.02
- Activity (HCC78 [7]): Active
- pIC50 [8]: 8.55
- inhibition [9]: Active
- pIC50 [10]: 8.64
- pIC50 [11]: 8.52
- pIC50 [12]: < 6.00
- pIC50 [13]: < 6.00
- Activity (KARPAS-299 [14]): Dose-dependent effect
- pIC50 [15]: 8.34
- Ratio IC50 [16]: 11
- pIC50 [17]: 8.96
- inhibition [18]: Dose-dependent effect
- pIC50 [19]: 8.51
- Activity (KARPAS-299 [20]): Dose-dependent effect

— ChEMBL document CHEMBL4130574, “Discovery of novel 2,4-diarylaminopyrimidine analogues as ALK and ROS1 dual inhibitors to overcome crizotinib-resistant mutants including G1202R” (Eur J Med Chem, 2018)
